According to paper PMC5943959, “Potent and Selective Carboxylic Acid Inhibitors of Tumor-Associated Carbonic Anhydrases IX and XII” (Molecules : A Journal of Synthetic Chemistry and Natural …, 2017):
Read-outs that look alike come from different tables or passages of the source.

Legend:
hCA IX [1] = target: T1, hCA IX (Homo sapiens, UniProt Q16790); test: stopped-flow CO2 hydrase assay, hCA IX; type: biochemical; conditions: for Selectivity Index hCA II/hCA IX: ratio of Ki values; for Ki: recombinant enzyme, errors ± 5–10%, 3 assays
T1 construct: made in house

hCA II [2] = target: T2, hCA II (Homo sapiens, UniProt P00918); test: stopped-flow CO2 hydrase assay, hCA II; type: biochemical
T2 construct: made in house

hCA IV [3] = target: T3, hCA IV (Homo sapiens, UniProt P22748); test: stopped-flow CO2 hydrase assay, hCA IV; type: biochemical
T3 construct: made in house

hCA I [4] = target: T4, hCA I (Homo sapiens, UniProt P00915); test: stopped-flow CO2 hydrase assay, hCA I; type: biochemical
T4 construct: made in house

hCA VA [5] = target: T5, hCA VA (Homo sapiens, UniProt P35218); test: stopped-flow CO2 hydrase assay, hCA VA; type: biochemical
T5 construct: made in house

hCA VII [6] = target: T6, hCA VII (Homo sapiens, UniProt P43166); test: stopped-flow CO2 hydrase assay, hCA VII; type: biochemical
T6 construct: made in house

hCA XII [7] = target: T7, hCA XII (Homo sapiens, UniProt O43570); test: stopped-flow CO2 hydrase assay, hCA XII; type: biochemical; conditions: for Selectivity Index hCA II/hCA XII: ratio of Ki values
T7 construct: made in house

hCA IV [8] = target: T3, hCA IV; parameters: method as in PMID 26121309; conditions: values measured previously; cited from earlier work
hCA I [9] = target: T4, hCA I; parameters: method as in PMID 26121309; conditions: values measured previously; cited from earlier work
hCA XII [10] = target: T7, hCA XII; parameters: method as in PMID 26121309; conditions: values measured previously; cited from earlier work
[11] = tested on: chronic myeloid leukemia cells; parameters: method as in PMID 26121309; conditions: cited from earlier work
hCA II [12] = target: T2, hCA II; parameters: method as in PMID 26121309; conditions: values measured previously; cited from earlier work
hCA IX [13] = target: T1, hCA IX; parameters: method as in PMID 26121309; conditions: values measured previously; cited from earlier work
hCA VII [14] = target: T6, hCA VII; parameters: method as in PMID 26121309; conditions: values measured previously; cited from earlier work
hCA VA [15] = target: T5, hCA VA; parameters: method as in PMID 26121309; conditions: values measured previously; cited from earlier work
[16] = recombinant enzyme, errors ± 5–10%, 3 assays, read-out: Ki hCA II
[17] = recombinant enzyme, errors ± 5–10%, 3 assays, read-out: Ki hCA IV
[18] = recombinant enzyme, errors ± 5–10%, 3 assays, read-out: Ki hCA I
[19] = recombinant enzyme, errors ± 5–10%, 3 assays, read-out: Ki hCA VA
[20] = recombinant enzyme, errors ± 5–10%, 3 assays, read-out: Ki hCA VII
[21] = recombinant enzyme, errors ± 5–10%, 3 assays, read-out: Ki hCA XII

T3 sequence (P22748 19-312): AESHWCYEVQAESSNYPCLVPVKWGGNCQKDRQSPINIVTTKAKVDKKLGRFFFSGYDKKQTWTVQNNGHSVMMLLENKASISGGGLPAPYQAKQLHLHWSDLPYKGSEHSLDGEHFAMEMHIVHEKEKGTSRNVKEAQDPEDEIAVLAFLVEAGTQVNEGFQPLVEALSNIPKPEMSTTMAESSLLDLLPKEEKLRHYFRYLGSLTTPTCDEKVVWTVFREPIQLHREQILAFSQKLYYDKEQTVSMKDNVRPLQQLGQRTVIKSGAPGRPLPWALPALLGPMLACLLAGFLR
T4 sequence (P00915 whole entry): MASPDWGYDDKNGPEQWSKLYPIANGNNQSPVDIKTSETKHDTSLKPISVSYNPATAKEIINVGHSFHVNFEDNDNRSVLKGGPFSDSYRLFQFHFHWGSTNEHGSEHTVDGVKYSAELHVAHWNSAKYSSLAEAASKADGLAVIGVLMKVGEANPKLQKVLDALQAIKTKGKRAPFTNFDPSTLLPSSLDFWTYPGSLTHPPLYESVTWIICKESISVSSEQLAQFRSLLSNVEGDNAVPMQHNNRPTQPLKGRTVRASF
T7 sequence (O43570 25-354): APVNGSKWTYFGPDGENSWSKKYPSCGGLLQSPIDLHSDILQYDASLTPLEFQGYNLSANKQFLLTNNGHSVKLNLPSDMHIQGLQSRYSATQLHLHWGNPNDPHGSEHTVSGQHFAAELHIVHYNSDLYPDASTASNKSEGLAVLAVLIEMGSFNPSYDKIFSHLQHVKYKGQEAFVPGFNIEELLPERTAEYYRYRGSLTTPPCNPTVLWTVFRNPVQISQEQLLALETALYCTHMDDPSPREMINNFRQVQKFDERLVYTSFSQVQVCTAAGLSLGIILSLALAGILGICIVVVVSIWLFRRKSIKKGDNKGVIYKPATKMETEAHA
T6 sequence (P43166 whole entry): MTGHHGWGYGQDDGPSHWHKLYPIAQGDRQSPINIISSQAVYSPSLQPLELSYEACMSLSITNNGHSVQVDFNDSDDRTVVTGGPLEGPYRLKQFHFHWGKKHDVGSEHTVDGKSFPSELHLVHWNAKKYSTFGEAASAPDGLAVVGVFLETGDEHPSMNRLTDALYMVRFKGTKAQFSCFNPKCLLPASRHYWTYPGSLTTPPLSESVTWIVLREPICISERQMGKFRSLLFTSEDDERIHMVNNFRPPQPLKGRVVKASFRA
T5 sequence (P35218 39-305): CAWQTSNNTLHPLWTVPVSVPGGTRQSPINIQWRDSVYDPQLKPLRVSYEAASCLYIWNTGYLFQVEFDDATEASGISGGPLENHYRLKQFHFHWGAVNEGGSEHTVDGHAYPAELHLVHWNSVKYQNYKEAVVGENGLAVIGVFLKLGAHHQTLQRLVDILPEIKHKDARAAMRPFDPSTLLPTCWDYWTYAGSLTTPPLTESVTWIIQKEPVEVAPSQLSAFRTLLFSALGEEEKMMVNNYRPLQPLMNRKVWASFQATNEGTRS

| Compound | Selectivity Index hCA II/hCA IX (hCA IX [1]) | Ki (hCA IX [1]) [nM] | Ki (hCA II [2]; [16]) [nM] | Ki (hCA IV [3]; [17]) [nM] | Ki (hCA I [4]; [18]) [nM] | Ki (hCA VA [5]; [19]) [nM] | Ki (hCA VII [6]; [20]) [nM] | Selectivity Index hCA II/hCA XII (hCA XII [7]) | Ki (hCA XII [7]; [21]) [nM] | Ki (hCA I [4]) [nM] | Ki (hCA VA [5]) [nM] | also measured |
| --- | --- | --- | --- | --- | --- | --- | --- | --- | --- | --- | --- | --- |
| O=C(O)c1ccc(Sc2ccccc2C(=O)O)c([N+](=O)[O-])c1 [Compound 4] | 15.3 | 172 | 2630 | > 50000 | – | – | > 50000 | – | > 50000 | 6020 | > 50000 | – |
| CS(=O)(=O)c1ccc(C(=O)O)cc1[N+](=O)[O-] [Compound 7] | 264.9 | 27.6 | 7310 | > 50000 | – | – | > 50000 | – | > 50000 | > 50000 | 1460 | hCA XII inhibition (in words) (hCA XII [7]): not active |
| O=C(O)c1ccc(Sc2nnc(Sc3ccc(C(=O)O)cc3[N+](=O)[O-])s2)c([N+](=O)[O-])c1 [Compound 8] | – | 26.3 | – | – | – | – | – | – | – | 6450 | > 50000 | Ki (hCA II [2]): 801 nM; Ki (hCA IV [3]): 8800 nM; Ki (hCA VII [6]): > 50000 nM; hCA VII inhibition (in words) (hCA VII [6]): inactive; Ki (hCA XII [7]): 912 nM |
| Cc1cc(C(=O)Nc2cc(C(=O)O)cc([N+](=O)[O-])c2)no1 [Compound 9] | 51.5 | 165 | 8500 | 8270 | – | – | 762 | 11.3 | 753 | > 50000 | > 50000 | – |
| O=C(O)c1ccc(NCc2cccnc2)c([N+](=O)[O-])c1 [Compound 13] | >471.7 | 106 | > 50000 | > 50000 | > 50000 | 117 | > 50000 | >79.0 | 633 | – | – | hCA VII inhibition (in words) (hCA VII [6]): inactive |
| O=C(Cc1ccccc1)Nc1ccc(C(=O)O)cc1 [Compound 18] | 104.8 | 72.8 | 7630 | > 50000 | 2730 | 262 | > 50000 | 12.1 | 629 | – | – | – |
| N#Cc1ccc(NCCc2ccccc2)c([N+](=O)[O-])c1 [Compound 19] | >632.1 | 79.1 | > 50000 | > 50000 | – | 92.5 | > 50000 | – | 648 | > 50000 | – | hCA VII inhibition (in words) (hCA VII [6]): inactive |
| O=C(O)c1cc([N+](=O)[O-])c(NCCc2ccccc2)c([N+](=O)[O-])c1 [GV2-20] | 1.59 | – | – | – | – | – | – | 7.01 | – | – | – | Ki (hCA IV [8]): 7660 nM; Ki (hCA I [9]): 352 nM; Ki (hCA XII [10]): 9.6 nM; antiproliferative effects [11]: antiproliferative effects; Ki (hCA II [12]): 67.3 nM; Ki (hCA IX [13]): 42.3 nM; Ki (hCA VII [14]): 8.7 nM; Ki (hCA VA [15]): 895 nM |

Second part, led by results:

| Selectivity Index hCA II/hCA IX (hCA IX [1]) | Ki (hCA IX [1]) [nM] | Ki (hCA II [2]; [16]) [nM] | Ki (hCA IV [3]; [17]) [nM] | Ki (hCA I [4]; [18]) [nM] | Ki (hCA VA [5]; [19]) [nM] | Ki (hCA VII [6]; [20]) [nM] | Selectivity Index hCA II/hCA XII (hCA XII [7]) | Ki (hCA XII [7]; [21]) [nM] | Ki (hCA I [4]) [nM] | Ki (hCA VA [5]) [nM] | Compound | also measured |
| --- | --- | --- | --- | --- | --- | --- | --- | --- | --- | --- | --- | --- |
| 11.88 | 55.1 | 655 | 5090 | 700 | 826 | 325 | 23.99 | 27.3 | – | – | O=C(O)c1ccc(Sc2nnc(-c3cccc(Br)c3)o2)c([N+](=O)[O-])c1 [Compound 1] | Ki against hCA II, fold higher than that of AAZ (hCA II [2]; relative to AAZ): around 54 fold; Ki against hCA II, fold higher than that of GV2-20 (hCA II [2]; relative to GV2-20): around 10 fold; drop of inhibitory potency against hCA VII compared to GV2-20 (hCA VII [6]; relative to GV2-20): around 37 fold |
| 68.3 | 106 | 7240 | > 50000 | – | – | > 50000 | – | > 50000 | 5640 | 1350 | CC1OC(Nc2cc(C(=O)O)cc([N+](=O)[O-])c2)C(O)C(O)C1O (stereo not drawn) [Compound 2] | – |
| 34.9 | 209 | 7300 | > 50000 | > 50000 | 1310 | 840 | – | > 50000 | – | – | O=C(O)c1ccc(N2CCc3ccccc32)c([N+](=O)[O-])c1 [Compound 3] | – |
| >326.8 | 153 | > 50000 | > 50000 | – | 1160 | > 50000 | >57.9 | 863 | 8150 | – | O=C(O)c1ccc(NCCc2ccc(Cl)cc2)c([N+](=O)[O-])c1 [Compound 5] | hCA VII inhibition (in words) (hCA VII [6]): inactive |
| 263.1 | 30.6 | 8050 | > 50000 | – | – | > 50000 | – | > 50000 | 8210 | > 50000 | CCOC(=O)C1CCN(c2ccc(C(=O)O)cc2[N+](=O)[O-])CC1 [Compound 6] | hCA XII inhibition (in words) (hCA XII [7]): not active |
| >3125 | 16 | > 50000 | > 50000 | 6650 | 142 | 665 | >609.01 | 82.1 | – | – | O=C(O)c1ccc(Sc2ccccn2)c([N+](=O)[O-])c1 [Compound 10] | – |
| >857.6 | 58.3 | > 50000 | > 50000 | – | 356 | > 50000 | >64.3 | 778 | > 50000 | – | Cc1ccc(S(=O)(=O)c2ccc(C(=O)O)cc2[N+](=O)[O-])cc1 [Compound 11] | – |
| – | 82 | > 50000 | > 50000 | – | 144 | > 50000 | – | 91.9 | > 50000 | – | CC(=O)Nc1cccc(Nc2c([N+](=O)[O-])cc(C(=O)O)cc2[N+](=O)[O-])c1 [Compound 12] | – |
| >2174.0 | 23 | > 50000 | > 50000 | – | 449 | > 50000 | >103.7 | 482 | > 50000 | – | O=C(CSc1nnc(-c2ccncc2)s1)Nc1cc(C(=O)O)cc([N+](=O)[O-])c1 [Compound 14] | – |
| >2024.3 | 24.7 | > 50000 | 9200 | – | 110 | > 50000 | >69.1 | 724 | > 50000 | – | CC(C)(C)OC(=O)N1CCC(Nc2ccc(C(=O)O)cc2[N+](=O)[O-])CC1 [Compound 15] | – |
| >1661.1 | 30.1 | > 50000 | 6030 | – | 154 | 1730 | >142.0 | 352 | > 50000 | – | CC1=NN(c2ccc(C)cc2)C(=O)/C1=C/Nc1ccc(C(=O)O)cc1[N+](=O)[O-] [Compound 16] | – |
| >2136.8 | 23.4 | > 50000 | 3560 | > 50000 | 739 | > 50000 | >113.4 | 441 | – | – | O=C(O)c1ccc(Sc2nnnn2-c2ccccc2)c([N+](=O)[O-])c1 [Compound 17] | – |
